Measured values from paper PMC4015918, “Conjugation to a SMAC mimetic potentiates sigma-2 ligand induced tumor cell death in ovarian cancer” (Molecular Cancer, 2014).

Legend:
SKOV3 cells = test: Blocking study: competition with uptake of fluorescent sigma-2 ligand SW120, flow cytometry; format: cell-based; settings: SKOV3 cells pretreated 30 min with increasing concentrations, then 10 nM SW120 for 30 min
Method: Figure 1 Compound structures and cell binding characteristics of SW IV-134. (A) The chemical structures of sigma-2 ligand SW43, the SMAC peptidomimetic SW IV-52, and the chemical conjugate SW IV-134. Note that the chirality of SW IV-52 is fully retained in the drug conjugate (asterisks). […] SKOV3 cells were pretreated with increasing concentration of SW IV-134, followed by incubation with SW120, prior to analysis by flow cytometry.
SKOV3 cells (3 × 10^4/well) were seeded into 6 cm plates for 24 hours before treatment. The cells were incubated with 5, 10, 50, and 100 μM doses of SW IV-134 for 30 minutes at 37°C. After this step, 10 nM SW120 was added to the cell culture medium containing SW IV-134. After 30 minute incubation at 37°C, cells were washed twice with phosphate buffered saline (PBS) and harvested with 0.05% trypsin EDTA (Life Technologies, Grand Island, NY). The cells were centrifuged at 1000 × g for 5 minutes and pellets washed twice with PBS. Internalization of SW120 was determined by flow cytometer (FACSCalibur, BD Biosciences, San Jose, CA).
Supplementary file 1476-4598-13-50-S2.pdf: Additional file 2: Figure S1 Receptor binding characteristics of the individual components of SW IV-134. SKOV3 cells were pretreated with increasing concentration of (A) SW43 and (B) SW IV-52, followed by incubation with SW120, prior to analysis by flow cytometry. […] Click here for file

NIK = test: Western blot for NF-қB-inducing kinase (NIK); format: cell-based; settings: SKOV3 cells, 10 μM, 4 hours
Method: Figure 4 SW IV-134 engages in SMAC-dependent pathway activation. (A) SKOV3 cells were treated with vehicle only (Ctrl.), SW43 (10 μM), and SW IV-134 (10 μM) for 4 hours and cell lysates were subjected to Western blot analysis using antibodies against XIAP, cIAP-1, cIAP-2, NF-қB and NIK. While XIAP seems unaffected under the conditions used, cIAP-1 and cIAP-2 proteins are readily undetectable shortly post treatment. SW IV-134 treatment also leads to accumulation of NF-қB inducing kinase (NIK) and activation of NF-қB pathway. (B) SKOV3 cells were treated with SW IV-134 at the indicated doses either alone or in the presence of proteasome inhibitor MG132 (20 μM) for 18 hours. […] Cell viability was determined as described in the experimental methods (p < 0.011, Student’s t-test).
Cells were lysed in radioimmunoprecipitation assay buffer [50 mM Tris, 150 mM sodium chloride, 1.0 mM EDTA, 1% Nonidet P40, and 0.25% SDS (pH 7.0)], supplemented with complete protease inhibitor cocktail (Roche, Mannheim) and phosphatase inhibitor cocktail 1 (Sigma Chemical Co., St. Louis, MO). The protein concentration was determined using a BioRad Dc protein assay kit (Bio-Rad Laboratories, Hercules, CA). Lysates containing 30 μg of protein were run on a 12% polyacrylamide gel and transferred to a PVDF membrane (Bio-Rad Laboratories, Hercules, CA). […]

[1] = Adverse effects after 3 weeks of intraperitoneal treatment: necropsy, complete blood count, serum chemistries; format: in vivo, SCID mice; settings: for Peritonitis at necropsy: also seen in vehicle treated mice
Method: In vivo experiments were conducted with 15 mice per treatment group. Treatment involved daily intraperitoneal injections with 90 μL of SW43 (7.5 mM stock), SW IV-134 (7.5 mM stock), or vehicle-only (25% cremophor in H2O) for 3 weeks. Tumor burden was monitored by bioluminescence imaging once a week during the treatment period. At the end of the treatment, 5 mice were randomly removed per treatment group and submitted for necropsy to the Washington University Department of Comparative Medicine. Blood samples were collected by intracardiac withdrawal prior to necropsy for chemistry and hematology work-up. In addition, various key organs were harvested for gross and histopathological examination. The remaining 10 mice from each treatment group were followed over time to examine overall survival. For survival studies, actual death or poor physical condition/large tumor size meeting criteria for euthanasia, constituted a death event.
Supplementary file 1476-4598-13-50-S6.pdf: Additional file 6: Table S2 Complete blood count and serum chemistries for severe combined immunodeficient (SCID) mice treated with SW IV-134, SW43, and vehicle control. SCID mice were treated daily with intra-peritoneal injections of SW IV-134, SW43, and vehicle control for 3 weeks. At the end of treatment, blood was collected from mice in each treatment group and analyzed for hemoglobin, white blood count, and platelets. Serum chemistries were also obtained to determine the levels of liver enzymes aspartate aminotransferase (AST) and alanine aminotransferase (ALT), renally cleared metabolites blood urea nitrogen (BUN) and creatinine, as well as total protein and glucose. The mice treated with SW134 were noted to have a statistically significant decrease in hemoglobin and an increase in white blood count compared to those treated with SW43 or vehicle control. Click here for file […]
Table S2: Complete b l o od count and ser um chemistries f or SCI D mice treated with SW IV-134, SW43, and vehicle. SC ID m ic e were treated daily with intra- peritoneal injections of SW 134, SW 43, and vehicle control fo r 3 weeks. At the end of treatment, bloo d was co lle ct ed from mice in each treatment gro up and analyzed for hemoglobin, w hit e bloo d co un t , and plate lets. S e r um chemistries were also obtained to determine the levels of l iv e r enzymes as pa rt at e aminotransferase ( A ST ) and alanine aminotransferase (ALT), renally cleared metabolites blood urea nitrogen ( BUN) and creatinine, as well as tot al protein a nd gl uco s e. The mice treated w it h SW IV- 134 were no te d to have a statistically significant decrease in hemoglobin and an increase in w hit e bloo d co u nt compared to those treated with SW43 or vehicle control.

[2] = SCID mice, daily i.p. 3 weeks, end of treatment

COc1ccc(C)cc1NC(=O)OC1CC2CCCC(C1)N2CCCCCCCCCCN[C@@H](C)C(=O)N[C@H](C(=O)N1CCC[C@H]1C(=O)N[C@@H]1CCCc2ccccc21)C(C)(C)C (stereo partly drawn) [SW IV-134]
Blocking of SW120 uptake (SKOV3 cells): dose-dependent reduction of SW120 signal intensity | Accumulation of NIK (NIK): accumulation of NIK | ALT, mean [1, 2]: 84.0 u/L | AST, mean [1, 2]: 91.4 u/L | BUN, mean [1, 2]: 24.8 mg/dL | Creatinine, mean [1, 2]: 0.4 mg/dL | Glucose, mean [1, 2]: 103.6 mg/dL | Hemoglobin, mean [1, 2]: 9.5 g/dL | Platelet, mean [1, 2]: 1063.8 103 /µl | Total bilirubin, mean [1, 2]: 0.1 mg/dL | Total protein, mean [1, 2]: 6.0 g/dL | WBC, mean [1, 2]: 19.3 103 /µl | Splenomegaly ([1]; i.p. daily for 3 weeks): mild splenomegaly | Peritonitis at necropsy ([1]; i.p. daily for 3 weeks): mild to moderate peritonitis

COc1ccc(C)cc1NC(=O)OC1CC2CCCC(C1)N2CCCCCCCCCCN (stereo not drawn) [SW43, reference compound]
Blocking of SW120 uptake (SKOV3 cells): prevents uptake of the fluorescently labeled sigma-2 ligand SW120 in a dose-dependent fashion | Accumulation of NIK (NIK): not seen | ALT, mean [1, 2]: 56.0 u/L | BUN, mean [1, 2]: 22.3 mg/dL | Creatinine, mean [1, 2]: 0.3 mg/dL | Hemoglobin, mean [1, 2]: 11.7 g/dL | Total bilirubin, mean [1, 2]: 0.1 mg/dL | Total protein, mean [1, 2]: 5.8 g/dL | WBC, mean [1, 2]: 3.2 103 /µl | Peritonitis at necropsy ([1]; i.p. daily for 3 weeks): mild to moderate peritonitis
